Measured values taken from PubChem BioAssay AID1963832 (Molecular Pharmacology Branch, DTP, NCI, 2024).
pIC50: −log10 of the molar value.

Test system: 885724-159-R-J1-PDC complex spheroid viability
Assay: Anticancer human tumor 885724-159-R-J1-PDC patient-derived pancreatic adenocarcinoma cell line growth inhibition [POLQ]
Conditions: for pIC50: curve of first compound; for viability, T/C: stronger effect = lower value
In short: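 Three-cell-type spheroids modelling solid tumor plus stroma served as the readout system; POL inhibitors were tested individually and in combination, concentration ranges set by clinical Cmax where known.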

[1] = second compound 0.0316 µM, first compound 0.0316 µM
[2] = second compound 0.0316 µM, first compound 0.1 µM
[3] = second compound 0.0316 µM, first compound 0.316 µM
[4] = second compound 0.0316 µM, first compound 1 µM
[5] = second compound 0.0316 µM, first compound 3.16 µM
[6] = second compound 0.0316 µM, first compound 10 µM
[7] = second compound 0.1 µM, first compound 0.0316 µM
[8] = second compound 0.1 µM, first compound 0.1 µM
[9] = second compound 0.1 µM, first compound 0.316 µM
[10] = second compound 0.1 µM, first compound 1 µM
[11] = second compound 0.1 µM, first compound 3.16 µM
[12] = second compound 0.1 µM, first compound 10 µM
[13] = second compound 0.316 µM, first compound 0.0316 µM
[14] = second compound 0.316 µM, first compound 0.1 µM
[15] = second compound 0.316 µM, first compound 0.316 µM
[16] = second compound 0.316 µM, first compound 1 µM
[17] = second compound 0.316 µM, first compound 3.16 µM
[18] = second compound 0.316 µM, first compound 10 µM
[19] = second compound 1 µM, first compound 0.0316 µM
[20] = second compound 1 µM, first compound 0.1 µM
[21] = second compound 1 µM, first compound 0.316 µM
[22] = second compound 1 µM, first compound 1 µM
[23] = second compound 1 µM, first compound 3.16 µM
[24] = second compound 1 µM, first compound 10 µM
[25] = second compound 3.16 µM, first compound 0.0316 µM
[26] = second compound 3.16 µM, first compound 0.1 µM
[27] = second compound 3.16 µM, first compound 0.316 µM
[28] = second compound 3.16 µM, first compound 1 µM
[29] = second compound 3.16 µM, first compound 3.16 µM
[30] = second compound 3.16 µM, first compound 10 µM
[31] = second compound 10 µM, first compound 0.0316 µM
[32] = second compound 10 µM, first compound 0.1 µM
[33] = second compound 10 µM, first compound 0.316 µM
[34] = second compound 10 µM, first compound 1 µM
[35] = second compound 10 µM, first compound 3.16 µM
[36] = second compound 10 µM, first compound 10 µM
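Note: spheroids exposed to compounds for 7 days.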

Nc1ccn(C2OC(CO)C(O)C2(F)F)c(=O)n1 (stereo not drawn) + COC1C(OC(N)=O)C(O)C(Oc2ccc3c(O)c(NC(=O)c4ccc(O)c(CC=C(C)C)c4)c(=O)oc3c2C)OC1(C)C
pIC50 (second compound 0.0316 µM): 6.10 | pIC50 (second compound 0.1 µM): 5.73 | pIC50 (second compound 0.316 µM): 5.51 | pIC50 (second compound 1 µM): 6.73 | pIC50 (second compound 3.16 µM): 5.81 | pIC50 (second compound 10 µM): < 5.00 | viability, T/C [1]: 61.7% | viability, T/C [2]: 58.4% | viability, T/C [3]: 51.4% | viability, T/C [4]: 49.7% | viability, T/C [5]: 46.8% | viability, T/C [6]: 44.3% | viability, T/C [7]: 61.6% | viability, T/C [8]: 57.6% | viability, T/C [9]: 54% | viability, T/C [10]: 52.4% | viability, T/C [11]: 50.4% | viability, T/C [12]: 40% | viability, T/C [13]: 67.8% | viability, T/C [14]: 55% | viability, T/C [15]: 52.7% | viability, T/C [16]: 59.5% | viability, T/C [17]: 51.8% | viability, T/C [18]: 44% | viability, T/C [19]: 71.1% | viability, T/C [20]: 51.3% | viability, T/C [21]: 48.4% | viability, T/C [22]: 51.6% | viability, T/C [23]: 45.2% | viability, T/C [24]: 41.2% | viability, T/C [25]: 62.2% | viability, T/C [26]: 59.4% | viability, T/C [27]: 52.6% | viability, T/C [28]: 48.1% | viability, T/C [29]: 53.9% | viability, T/C [30]: 44.2% | viability, T/C [31]: 69.6% | viability, T/C [32]: 53.4% | viability, T/C [33]: 52.9% | viability, T/C [34]: 56.9% | viability, T/C [35]: 50.5% | viability, T/C [36]: 45.7%

CNCc1ccc(-c2[nH]c3cc(F)cc4c3c2CCNC4=O)cc1 + Cc1cccc(N(C)C(=O)C2C(O)CCN2c2nc(C)cc(C(F)(F)F)c2C#N)c1
pIC50 (second compound 0.0316 µM): < 5.00 | pIC50 (second compound 0.1 µM): < 5.00 | pIC50 (second compound 0.316 µM): < 5.00 | pIC50 (second compound 1 µM): < 5.00 | pIC50 (second compound 3.16 µM): < 5.00 | pIC50 (second compound 10 µM): < 5.00 | viability, T/C [1]: 92.2% | viability, T/C [2]: 102% | viability, T/C [3]: 98.2% | viability, T/C [4]: 89.2% | viability, T/C [5]: 90.3% | viability, T/C [6]: 83.9% | viability, T/C [7]: 104% | viability, T/C [8]: 104% | viability, T/C [9]: 91.1% | viability, T/C [10]: 92.7% | viability, T/C [11]: 93.3% | viability, T/C [12]: 83.2% | viability, T/C [13]: 104% | viability, T/C [14]: 94.1% | viability, T/C [15]: 102% | viability, T/C [16]: 87.9% | viability, T/C [17]: 92% | viability, T/C [18]: 88.5% | viability, T/C [19]: 92.2% | viability, T/C [20]: 89.5% | viability, T/C [21]: 88.7% | viability, T/C [22]: 113% | viability, T/C [23]: 91% | viability, T/C [24]: 86.3% | viability, T/C [25]: 102% | viability, T/C [26]: 90.8% | viability, T/C [27]: 97.5% | viability, T/C [28]: 96.3% | viability, T/C [29]: 92.5% | viability, T/C [30]: 85.2% | viability, T/C [31]: 97% | viability, T/C [32]: 103% | viability, T/C [33]: 85.2% | viability, T/C [34]: 88% | viability, T/C [35]: 86.1% | viability, T/C [36]: 88.5%

O=c1[nH]cc(F)c(=O)[nH]1 + Cc1cccc(N(C)C(=O)C2C(O)CCN2c2nc(C)cc(C(F)(F)F)c2C#N)c1
pIC50 (second compound 0.0316 µM): < 5.00 | pIC50 (second compound 0.1 µM): < 5.00 | pIC50 (second compound 0.316 µM): < 5.00 | pIC50 (second compound 1 µM): < 5.00 | pIC50 (second compound 3.16 µM): < 5.00 | pIC50 (second compound 10 µM): < 5.00 | viability, T/C [1]: 98.5% | viability, T/C [2]: 101% | viability, T/C [3]: 95.8% | viability, T/C [4]: 100% | viability, T/C [5]: 90.2% | viability, T/C [6]: 76.4% | viability, T/C [7]: 97.7% | viability, T/C [8]: 104% | viability, T/C [9]: 98.7% | viability, T/C [10]: 106% | viability, T/C [11]: 90% | viability, T/C [12]: 74.7% | viability, T/C [13]: 98.7% | viability, T/C [14]: 88.6% | viability, T/C [15]: 97.5% | viability, T/C [16]: 99% | viability, T/C [17]: 87.5% | viability, T/C [18]: 71.9% | viability, T/C [19]: 111% | viability, T/C [20]: 107% | viability, T/C [21]: 101% | viability, T/C [22]: 98.2% | viability, T/C [23]: 92% | viability, T/C [24]: 76.7% | viability, T/C [25]: 114% | viability, T/C [26]: 96.2% | viability, T/C [27]: 88% | viability, T/C [28]: 100% | viability, T/C [29]: 87.3% | viability, T/C [30]: 71.7% | viability, T/C [31]: 99% | viability, T/C [32]: 101% | viability, T/C [33]: 89.8% | viability, T/C [34]: 89.4% | viability, T/C [35]: 92.9% | viability, T/C [36]: 78.6%

O=c1[nH]cc(F)c(=O)[nH]1 + Nc1ccc(C#CCN(C(=O)Cc2ncc(C(F)(F)F)cc2C(F)(F)F)c2ccc(F)cc2)nn1
pIC50 (second compound 0.0316 µM): < 5.00 | pIC50 (second compound 0.1 µM): < 5.00 | pIC50 (second compound 0.316 µM): < 5.00 | pIC50 (second compound 1 µM): < 5.00 | pIC50 (second compound 3.16 µM): < 5.00 | pIC50 (second compound 10 µM): < 5.00 | viability, T/C [1]: 88.7% | viability, T/C [2]: 99.5% | viability, T/C [3]: 93.2% | viability, T/C [4]: 101% | viability, T/C [5]: 100% | viability, T/C [6]: 75.2% | viability, T/C [7]: 94% | viability, T/C [8]: 100% | viability, T/C [9]: 92.1% | viability, T/C [10]: 96% | viability, T/C [11]: 87% | viability, T/C [12]: 74.9% | viability, T/C [13]: 100% | viability, T/C [14]: 98.2% | viability, T/C [15]: 92.2% | viability, T/C [16]: 90.9% | viability, T/C [17]: 89.4% | viability, T/C [18]: 82.7% | viability, T/C [19]: 96.9% | viability, T/C [20]: 88.8% | viability, T/C [21]: 96% | viability, T/C [22]: 93.2% | viability, T/C [23]: 81.3% | viability, T/C [24]: 71.7% | viability, T/C [25]: 97.1% | viability, T/C [26]: 86.4% | viability, T/C [27]: 86.9% | viability, T/C [28]: 92.8% | viability, T/C [29]: 97.5% | viability, T/C [30]: 71.6% | viability, T/C [31]: 105% | viability, T/C [32]: 109% | viability, T/C [33]: 94% | viability, T/C [34]: 86.5% | viability, T/C [35]: 92.8% | viability, T/C [36]: 81.9%
